Assays:
human SGLT2 = molecular target: T1, human SGLT2 (Homo sapiens, UniProt P31639); test: Sodium-dependent 14C-AMG uptake in CHO-K1 cells expressing human SGLT2; format: cell-based; details: n = 10
T1 sequence (P31639 1-672): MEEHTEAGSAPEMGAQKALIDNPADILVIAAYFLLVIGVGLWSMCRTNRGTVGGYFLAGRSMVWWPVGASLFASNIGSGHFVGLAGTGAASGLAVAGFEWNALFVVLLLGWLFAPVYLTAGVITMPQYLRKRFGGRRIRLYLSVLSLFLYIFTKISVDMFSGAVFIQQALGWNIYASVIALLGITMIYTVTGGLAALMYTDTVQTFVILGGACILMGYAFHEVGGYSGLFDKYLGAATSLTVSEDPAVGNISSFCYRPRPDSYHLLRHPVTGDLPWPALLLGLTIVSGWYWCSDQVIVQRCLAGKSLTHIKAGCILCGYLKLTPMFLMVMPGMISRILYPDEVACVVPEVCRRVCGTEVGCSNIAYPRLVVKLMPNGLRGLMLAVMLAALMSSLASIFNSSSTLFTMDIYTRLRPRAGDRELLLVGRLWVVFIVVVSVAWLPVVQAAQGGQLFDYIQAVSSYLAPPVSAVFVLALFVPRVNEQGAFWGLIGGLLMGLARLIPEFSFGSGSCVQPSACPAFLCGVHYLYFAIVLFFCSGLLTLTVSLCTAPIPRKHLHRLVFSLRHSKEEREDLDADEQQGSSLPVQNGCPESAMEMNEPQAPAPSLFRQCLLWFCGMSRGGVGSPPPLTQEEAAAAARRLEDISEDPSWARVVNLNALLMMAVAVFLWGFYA
From the text: (§1) The cDNA encoding human SGLT1 (slc5a1, NM_000343), human SGLT2 (slc5a2, NM_003041) and mouse SGLT1 (slc5a1, NM_019810.4) are purchased from Openbiosystems, Invitrogen and Openbiosystems, respectively. The cDNA is cloned into pcDNA3.1+ for mammalian expression and is stably transfected into Chinese hamster ovary (CHO)-K1 cells using standard mammalian transfection procedures. An SGLT-expressing sub-clone of each over-expressing cell line is selected based on resistance to neomycin (Geneticin, Invitrogen) and activity in the ^14C-α-methyl-D-glucopyranoside (^14C-AMG) uptake assay (see below). Stable SGLT-expressing cells are maintained using standard cell culture techniques.
(§2) The SGLT activity is measured as sodium-dependent ^14C-AMG uptake in the above cell lines described as follows. One hundred μL of culture medium containing 30,000 cells are seeded to each well of a 96-well BioCoat poly-D-lysine plate (Becton Dickson) and cultured at 37° C. overnight. The culture medium is aspirated and cells are washed twice with 200 μL of Reaction Buffer (140 mM NaCl, 2 mM KCl, 1 mM CaCl2, MgCl2, and 14 mM N-2-hydroethylpiperrazine-N′-2-ethanesulfonic acid (Hepes), pH 7.5). The excess buffer is tapped out onto paper towels. Thirty-five μL of Reaction Buffer are added to each well. […] After mixing, the scintillation signal in the plate is counted in a MicroBeta (PerkinElmer). […]

human SGLT1 = molecular target: T2, human SGLT1 (Homo sapiens, UniProt P13866); test: Sodium-dependent 14C-AMG uptake in CHO-K1 cells expressing human SGLT1; format: cell-based
T2 sequence (P13866 1-664): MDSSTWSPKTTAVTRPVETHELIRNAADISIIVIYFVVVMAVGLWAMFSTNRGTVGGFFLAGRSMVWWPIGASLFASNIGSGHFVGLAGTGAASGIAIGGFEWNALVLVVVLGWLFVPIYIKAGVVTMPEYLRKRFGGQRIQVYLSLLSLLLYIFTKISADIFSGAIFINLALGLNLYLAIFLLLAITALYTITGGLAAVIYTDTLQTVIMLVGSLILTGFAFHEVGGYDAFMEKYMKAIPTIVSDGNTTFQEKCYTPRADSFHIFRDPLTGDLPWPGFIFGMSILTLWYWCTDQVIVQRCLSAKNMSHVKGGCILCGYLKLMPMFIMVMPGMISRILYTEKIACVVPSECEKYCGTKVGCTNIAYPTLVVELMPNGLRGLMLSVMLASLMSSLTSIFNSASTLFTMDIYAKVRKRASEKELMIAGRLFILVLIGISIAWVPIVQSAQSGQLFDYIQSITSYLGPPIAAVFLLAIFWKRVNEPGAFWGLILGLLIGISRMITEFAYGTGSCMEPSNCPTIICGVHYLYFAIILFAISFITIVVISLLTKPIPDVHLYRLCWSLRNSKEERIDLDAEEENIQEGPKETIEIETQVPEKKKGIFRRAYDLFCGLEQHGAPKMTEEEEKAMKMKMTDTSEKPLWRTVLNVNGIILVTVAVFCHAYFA
From the text: as §1, §2

## Cc1cc(/C=C/CCN2CCCC3(CCNCC3)C2)ccc1Cc1c(O[C@@H]2O[C@H](CO)[C@@H](O)[C@H](O)[C@H]2O)n[nH]c1C(C)C [Example 1 (free base), 4-{4-[(1E)-4-(2,9-diazaspiro[5.5]undec-2-yl)but-1-en-1-yl]-2-methylbenzyl}-5-(propan-2-yl)-1H-pyrazol-3-yl beta-D-glucopyranoside]
Human SGLT2
  IC50: 6.1 ± 1.2 µM
Human SGLT1; 14C-AMG uptake, CHO-K1 cells, n = 10
  IC50: 26 ± 20 nM
Human SGLT1; in vitro, from Table 2
  Potency at SGLT1 relative to human SGLT2: more potent at human and mouse SGLT1 than at human SGLT2

Source: US9573970B2, “4-{4-[(1E)-4-(2,9-diazaspiro[5.5]undec-2-yl)but-1-en-1-yl]-2-methylbenzyl}-5-(propan-2-yl)-1H-pyrazol-3-yl beta-D glucopyranoside acetate” (Eli Lilly and Company, priority 2013, dated 2017)
